Experimental data reported in patent US4513001A, “β-Adrenergic 1-[1-benzimidazolyl]-N-[2-(4-hydroxy-3-methoxy-phenyl)-2-hydroxy-ethyl]- 3-amino butane and salts and hydrates thereof” (priority 1982, dated 1985).
Where two headings read alike, the source gives them in different places.

Legend:
heart rate [1] = assay: β-stimulant specificity: heart rate of the anesthetised dog, antagonism of compound A tachycardia by acebutolol; format: in vivo
Text: The results below are the averages of the values obtained in 3 dogs.

heart rate [2] = assay: Heart rate of the un-anesthetised dog, oral; format: in vivo, Beagle dog
[3] = Acute toxicity in the mouse, intravenous; details: in vivo
Text: These two compounds were the subject of an acute toxicity study in the mouse.
The two compounds had similar toxicity and the pharmacological study was able, indifferently, to be carried out with one or the other, the results being, in the two cases, expressed by weight of base per kg of body weight for the in vivo tests and in molar concentration for the in vitro tests.

[4] = T1 + 1 min after acebutolol 0.5 mg/kg i.v., following compound A perfusion
[5] = T1 + 5 min after acebutolol 0.5 mg/kg i.v.
[6] = T1 + 15 min after acebutolol 0.5 mg/kg i.v.
[7] = T1 + 30 min (printed T i) after acebutolol 0.5 mg/kg i.v.
[8] = T1 + 1 h after acebutolol 0.5 mg/kg i.v.
[9] = T1 + 4 h after acebutolol 0.5 mg/kg i.v.

CCCC(=O)Nc1ccc(OCC(O)CNC(C)C)c(C(C)=O)c1 (centres unmarked) [Acebutolol, reference compound]
Heart rate (heart rate [1]; [4]): 162 beats/min | Heart rate variation (heart rate [1]; [4]): +5 | Heart rate (heart rate [1]; [5]): 156 beats/min | Heart rate variation (heart rate [1]; [5]): -1 | Heart rate (heart rate [1]; [6]): 149 beats/min | Heart rate variation (heart rate [1]; [6]): -8 | Heart rate (heart rate [1]; [7]): 147 beats/min | Heart rate variation (heart rate [1]; [7]): -10 | Heart rate (heart rate [1]; [8]): 154 beats/min | Heart rate variation (heart rate [1]; [8]): -3 | Heart rate (heart rate [1]; [9]): 143 beats/min | Heart rate variation (heart rate [1]; [9]): -14 | Antagonism of the tachycardia caused by compound A (heart rate [1]; acebutolol 0.5 mg/kg i.v., compound A perfused 6 min at 4.2 μg/kg/min): completely antagonises the tachycardia caused by compound A

COc1cc(C(O)CNC(C)CCn2cnc3ccccc32)ccc1O.Cl.Cl.O.O (centres unmarked) [Compound B, 1-[1-benzimidazolyl]-N-[2-(4-hydroxy-3-methoxy-phenyl)-2-hydroxy-ethyl]-3-amino-butane dihydrochloride, dihydrate]
Heart rate, average (heart rate [2]; 22 μg base/kg, 15 min, time 0: 94, 12 dogs): 130 | Heart rate, average (heart rate [2]; 22 μg base/kg, 30 min, time 0: 94): 129 | Heart rate, average (heart rate [2]; 22 μg base/kg, 1 h, time 0: 94): 129 | Heart rate, average (heart rate [2]; 22 μg base/kg, 2 h, time 0: 94): 119 | Heart rate, average (heart rate [2]; 22 μg base/kg, 3 h, time 0: 94): 109 | Heart rate, average (heart rate [2]; 22 μg base/kg, 4 h, time 0: 94): 104 | Heart rate, average (heart rate [2]; 22 μg base/kg, 5 h, time 0: 94): 102 | Heart rate, average (heart rate [2]; 72 μg base/kg, 15 min, time 0: 90, 12 dogs): 147 | Heart rate, average (heart rate [2]; 72 μg base/kg, 30 min, time 0: 90): 162 | Heart rate, average (heart rate [2]; 72 μg base/kg, 1 h, time 0: 90): 162 | Heart rate, average (heart rate [2]; 72 μg base/kg, 2 h, time 0: 90): 160 | Heart rate, average (heart rate [2]; 72 μg base/kg, 3 h, time 0: 90): 146 | Heart rate, average (heart rate [2]; 72 μg base/kg, 4 h, time 0: 90): 132 | Heart rate, average (heart rate [2]; 72 μg base/kg, 5 h, time 0: 90): 125 | Heart rate, average (heart rate [2]; 72 μg base/kg, 6 h, time 0: 90): 115 | Heart rate, average (heart rate [2]; 72 μg base/kg, 7 h, time 0: 90): 112 | Tachycardiac activity (comparison with Salbutamol) (heart rate [2]; un-anesthetised dog, in words): distinctly less tachycardiac than Salbutamol | LD50 ([3]; as base, confidence limits printed, read-out: LD50 expressed as base): 106 mg/kg | LD50 ([3]; by weight of product, confidence limits p=0.05 printed, read-out: LD50): 148 mg/kg
